Assay results taken from patent US10227380B2, “Triazole-crosslinked and thioether-crosslinked peptidomimetic macrocycles” (AILERON THERAPEUTICS, INC., priority 2012, dated 2019).
Bridge positions count the residues as written; N and C are the ends. Square brackets hold non-standard residues; d marks the D form. * marks the point of attachment. 5FAM = O=C1OC2(c3ccc(O)cc3Oc3cc(O)ccc32)c2ccc(C(=O)*)cc21; Cba = N[C@@H](CC1CCC1)C(=O)O; βAla = NCCC(=O)O

What was measured:
SJSA-1 cells = experiment: Cell Viability Assay (MTT), SJSA-1; format: cell-based; settings: read-out: SJSA-1 EC50 (72 h)
Protocol: The assay is performed according to the following general protocol: • Cell Plating: Trypsinize, count and seed cells at the pre-determined densities in 96-well plates a day prior to assay.
Add 180 μL of the assay media per well. Control wells with no cells, receive 200 μl media.
Peptide dilution: all dilutions are made at room temperature and added to cells at room temperature. • Prepare 10 mM stocks of the peptides in DMSO. Serially dilute the stock using 1:3 dilution scheme to get 10, 3.3, 1.1, 0.33, 0.11, 0.03, 0.01 mM solutions using DMSO as diluents. […] Also prepare DMSO/sterile water (3% DMSO) mix for control wells. • Thus the working stocks concentration range μM will be 300, 100, 30, 10, 3, 1, 0.3 and 0 μM. […] H1-H3 will receive 20 ul of assay media. H4-H9 will receive 20 ul of 3% DMSO-water vehicle. […] Nutlin was diluted using the same dilution scheme as peptides.
(20 μl of 300 μM peptide+180 μl of cells in media=30 μM final concentration in 200 μl volume in wells). Mix gently a few times using pipette. […] Viability of SJSA-1, RKO, RKO-E6, HCT-116 cells is determined on day 3, MCF-7 cells on day 5 and SW-480 cells on day 6. At the end of designated incubation time, allow the plates to come to room temperature. Remove 80 μl of assay media from each well. Add 15 μl of thawed MTT reagent to each well. • Allow plate to incubate for 2 h at 37° C. in humidified 5% CO2 atmosphere and add 100 μl solubilization reagent as per manufacturer's protocol.

MDM2 = MDM2 (Homo sapiens, UniProt Q00987); experiment: Competitive Fluorescence Polarization Assay for MDM2; format: binding
MDM2, sequence (Q00987 1-125): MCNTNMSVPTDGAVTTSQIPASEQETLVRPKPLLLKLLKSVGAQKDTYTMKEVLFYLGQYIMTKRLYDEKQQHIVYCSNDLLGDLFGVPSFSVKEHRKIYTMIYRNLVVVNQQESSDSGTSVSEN
Protocol: Competitive Fluorescence Polarization Assay for MDM2
The assay is performed according to the following general protocol: • 1. Dilute MDM2 (In-house, 41 kD) into FP buffer (High salt buffer-200 mM Nacl, 5 mM CHAPS, pH 7.5) to make 84 nM (2×) working stock solution. • 2. Add 20 μl of 84 nM (2×) of protein stock solution into each well of 96-well black HE microplate (Molecular Devices) • 3. Dilute 1 mM (in 100% DMSO) of FAM labeled linear peptide with DMSO to 100 μM (dilution 1:10). Then, dilute from 100 μM to 10 μM with water (dilution 1:10) and then dilute with FP buffer from 10 μM to 40 nM (dilution 1:250). This is the working solution which will be a 10 nM concentration in well (dilution 1:4). Keep the diluted FAM labeled peptide in the dark until use. • 4. Make unlabeled peptide dose plate with FP buffer starting with 1 μM (final) of peptide and making 5 fold serial dilutions for 6 points using following dilution scheme. • Dilute 10 mM (in 100% DMSO) with DMSO to 5 mM (dilution 1:2). Then, dilute from 5 mM to 500 μM with H2O (dilution 1:10) and then dilute with FP buffer from 500 μM to 20 μM (dilution 1:25). Making 5 fold serial dilutions from 4 μM (4×) for 6 points. • 5. Transfer 10 μl of serial diluted unlabeled peptides to each well which is filled with 20 μl of 84 nM of protein. • 6. Add 10 μl of […] of FAM labeled peptide into each well and incubate for 3 hr to read. […]

MDMX = biological target: T1, MDMX (Homo sapiens, UniProt O15151); experiment: Competitive Fluorescence Polarization Assay for MDMX; format: binding
T1 sequence (O15151 1-125): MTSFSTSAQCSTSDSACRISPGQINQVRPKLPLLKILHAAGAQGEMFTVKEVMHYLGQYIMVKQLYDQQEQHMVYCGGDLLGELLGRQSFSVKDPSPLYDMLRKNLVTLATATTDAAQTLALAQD
Protocol: Competitive Fluorescence Polarization Assay for MDMX
The assay is performed according to the following general protocol: • 1. Dilute MDMX (In-house, 40 kD) into FP buffer (High salt buffer-200 mM Nacl, 5 mM CHAPS, pH 7.5.) to make 300 nM (2×) working stock solution. 2. Add 20 μl of 300 nM (2×) of protein stock solution into each well of 96-well black HE microplate (Molecular Devices) • 3. Dilute 1 mM (in 100% DMSO) of FAM labeled linear peptide with DMSO to 100 μM (dilution 1:10). Then, dilute from 100 μM to 10 μM with water (dilution 1:10) and then dilute with FP buffer from 10 μM to 40 nM (dilution 1:250). This is the working solution which will be a 10 nM concentration in well (dilution 1:4). Keep the diluted FAM labeled peptide in the dark until use. • 4. Make unlabeled peptide dose plate with FP buffer starting with 5 μM (final) of peptide and making 5 fold serial dilutions for 6 points using following dilution scheme. • 5. Dilute 10 mM (in 100% DMSO) with DMSO to 5 mM (dilution 1:2). Then, dilute from 5 mM to 500 μM with H2O (dilution 1:10) and then dilute with FP buffer from 500 μM to 20 μM (dilution 1:25). Making 5 fold serial dilutions from 20 μM (4×) for 6 points. • 6. Transfer 10 μl of serial diluted unlabeled peptides to each well which is filled with 20 μl of 300 nM of protein. • 7. Add 10 μl of […] of FAM labeled peptide into each well and incubate for 3 hr to read. […]

Substance | EC50 (SJSA-1 cells) [µM] | Ki (MDM2) [µM] | Ki (MDMX) [µM]
452 (Ac-LTF[Alpha‑Me R‑azide 1,5 triazole (6 carbon) alanine]AYWAQL[Alpha‑Me alkyne 1,5 triazole (5 carbon) alanine]AAAAA[dA]-NH2; triazole 4-11; not fully specified; printed as Ac-LTF$5rn6AYWAQL$5a5AAAAAa-NH2) [compound 452] | > 30 | – | –
464 (5FAM-[βAla]LTA[Alpha‑Me R‑azide 1,5 triazole (6 carbon) alanine]EYWAQ[Cba][Alpha‑Me alkyne 1,5 triazole (5 carbon) alanine]SAA-NH2; triazole 5-12; not fully specified) [compound 464] | > 30 | – | –
466 (LTFAEYWAQAASAA; not fully specified; stapled, Ac, NH2, Cba5Prp; N-term Ac; MOD_RES (4)..(4): Alpha-Me R-azide 1,4 triazole (6 carbon) alanine olefin amino acid connected by an all-carbon crosslinker comprising one double bond; misc_feature (4)..(11): Crosslink between residues; MOD_RES () [compound 466] | – | < 0.01 | < 0.01

The next lines start with the values.

EC50 (SJSA-1 cells) [µM] | Ki (MDM2) [µM] | Ki (MDMX) [µM] | Substance
5 to 15 | – | – | 461 (5FAM-[βAla]LTF[Alpha‑Me R‑azide 1,4 triazole (6 carbon) alanine]EYWAQ[Cba][Alpha‑Me alkyne 1,4 triazole (5 carbon) alanine]SAA-NH2; triazole 5-12; not fully specified) [compound 461]
15 to 30 | – | – | 463 (5FAM-[βAla]LTF[Alpha‑Me R‑azide 1,5 triazole (6 carbon) alanine]EYWAQ[Cba][Alpha‑Me alkyne 1,5 triazole (5 carbon) alanine]SAA-NH2; triazole 5-12; not fully specified) [compound 463]
